Results on five compounds are retold here after article PMC10400562, “Label-free measurement of antimicrobial peptide interactions with lipid vesicles and nanodiscs using microscale thermophoresis” (Scientific Reports, 2023).

This series in a line: Label-free MST, peptide binding to SMA nanodiscs. The conditions noted are these: for Kd: label-free MST, SMA nanodiscs (anionic belt), 2500 nM AMP, apparent KD dominated by interaction with SMA polymer, mean ± SD of triplicates; for SMA KP, DMPC (MST) / SMA KP, DMPC/PG (MST): partition coefficient from initial fluorescence on MST instrument, SMA nanodiscs, hyperbolic fit, ± SD of triplicate fits. As to the method: The MST data for two nanodisc types, SMA and SMA-QA, were evaluated using the same methodology as the vesicle data, with FHot taken during the TRIC, and Fnorm plotted against log[lipid] and fit to Eq. (6).
The DMPC, and DMPC with 5% DMPG 21 mM vesicle stocks were used for the nanodisc preparation. The stocks were combined with an 8% SMA stock solution to yield a final SMA concentration of 1% for SMA nanodiscs. The stocks were combined with a 100 mg/mL SMA-QA stock to yield a final lipid:SMA-QA w/w ratio of 1:1.5. The combined SMA/SMA-QA and lipid mixture were incubated at room temperature overnight and purified by SEC. Fractions containing SMA/SMA-QA discs were concentrated using centrifugation filters. Total lipid concentration was determined by ^31P NMR (Figs. S4–S7). Nanodisc size was confirmed using a Malvern Zetasizer Nano ZS (Malvern Panalytical Ltd, Malvern, United Kingdom).
All MST measurements were conducted on a NanoTemper Monolith NT. Labelfree instrument, using Monolith NT. Labelfree standard treated zero background capillaries.
A dilution series of vesicles/nanodiscs was prepared from 3 mM to 100 nM lipid concentrations, comprising 15 discrete samples, and an additional zero lipid sample, for a total of 16 lipid concentrations. Final MST samples were prepared as a combination of 25 µL lipid solution and 25 µL 5 µM peptide solution (Table S1 in the Supporting Information).
MST measurements were conducted with excitation power set to 15%, with the MST power set to high. Laser time settings were: 3 s pre-laser, 30 s on time, and 3 s after heating. FHot was taken from the T-jump period after 1.5 s and FCold taken in the second prior to IR laser activation. For the evaluation of KP, the initial fluorescence was taken as the value reported during the period before the application of the laser. The MST response and initial fluorescence were extracted directly as a text file for further processing in MATLAB.
In a typical binding experiment that yields a sigmoidal curve, the Hill equation can be fitted to yield KD:[66]6 y=y0+EMaxLipid^n/KDn+Lipid^n where y is the MST response, y0 is the MST response of the AMP in an aqueous solution (i.e., in the absence of lipids), n is the Hill coefficient, and EMax is the maximal effect of the tested substrate. The removal of outlying MST response points was necessary. Erroneous points were identified by poor MST trace shapes or higher than expected initial fluorescence that was absent in the other replicates or subsequent points, but otherwise no further treatment of data was necessary. In all instances the MST response was plotted against log lipid concentration in nM and fit to Eq. (6).
The Kp of a molecule can be determined experimentally by observing changes in fluorescent intensity in the presence of an increasing concentration of lipid, and fitting to Eq. (8)[43].8 I/Iaq=1+KpVmLipidIL/Iaq/1+KPVmLipid
In Eq. (8) the fluorescence intensity of the AMP (I) is normalised to the fluorescence intensity of the AMP in an aqueous environment (Iaq), Vm is the molar volume of the lipids and IL is the fluorescence intensity of the AMP in the lipidic environment. For Vm, the average molar volume of the lipid composition is used. In the case of the DMPC only environments it is taken as the Vm of DMPC (1.023 nm^3), and in the DMPC-DMPG mixture it is the weighted average relative to the composition used (Vm DMPG = 0.997 nm^3)[54].

The mark [1] stands for this setting: read-out: SMA KD, DMPC/PG (MST).

Where two headings read alike, the source gives them in different places. Non-standard residues stand in square brackets, D forms with d. Residues, ends and D or L forms follow the SMILES beside them.

With `NCCCC[C@@H]1NC(=O)[C@H](Cc2c[nH]c3ccccc23)NC(=O)[C@H](CCCCN)NC(=O)[C@H](Cc2c[nH]c3ccccc23)NC(=O)[C@H](CCCCN)NC(=O)[C@H](Cc2c[nH]c3ccccc23)NC1=O` [compound 4] (cyclo(WKWKWK)), the “SMA KP, DMPC (MST)” value is 0.70 ± 0.11 × 10^3 and the “SMA KP, DMPC/PG (MST)” value is listed as 1.14 ± 0.12 × 10^3. Moreover, for the setting “read-out: SMA KD, DMPC (MST)”, the Kd turned out to be 8600 ± 500 nM. Also, the Kd under setting [1] stood at 9800 ± 300 nM.

On to `N=C(N)NCCC[C@@H]1NC(=O)[C@H](CCCNC(=N)N)NC(=O)[C@H](Cc2c[nH]c3ccccc23)NC(=O)[C@H](Cc2c[nH]c3ccccc23)NC(=O)[C@H](Cc2c[nH]c3ccccc23)NC(=O)[C@H](CCCNC(=N)N)NC1=O` [compound 1] (cyclo(WWWRRR)), for which the “SMA KP, DMPC (MST)” value is reported as 10.40 ± 1.52 × 10^3 and the “SMA KP, DMPC/PG (MST)” value was 10.27 ± 2.13 × 10^3. For the same compound, the Kd (read-out: SMA KD, DMPC (MST)) was 1200 ± 500 nM. Further, the Kd under setting [1] was 2200 ± 400 nM.

On to `N=C(N)NCCC[C@@H]1NC(=O)[C@H](Cc2c[nH]c3ccccc23)NC(=O)[C@H](CCCNC(=N)N)NC(=O)[C@H](Cc2c[nH]c3ccccc23)NC(=O)[C@H](CCCNC(=N)N)NC(=O)[C@H](Cc2c[nH]c3ccccc23)NC1=O` [compound 2] (cyclo(WRWRWR)), for which the “SMA KP, DMPC (MST)” value is reported as 9.72 ± 2.69 × 10^3 and the “SMA KP, DMPC/PG (MST)” value is 3.57 ± 0.36 × 10^3. Where the note is “read-out: SMA KD, DMPC (MST)”, the Kd came to 2700 ± 500 nM. Moreover, the Kd under setting [1] is 5600 ± 1100 nM.

For the compound `CC(C)C[C@@H]1NC(=O)[C@@H](CCCNC(=N)N)NC(=O)[C@H](CCCCN)NC(=O)[C@H](CC(N)=O)NC(=O)[C@@H](Cc2c[nH]c3ccccc23)NC(=O)[C@H](Cc2c[nH]c3ccccc23)NC1=O` [compound 5] (cyclo(LW[dW]NK[dR])), the “SMA KP, DMPC (MST)” value was 6.98 ± 1.24 × 10^3 and the “SMA KP, DMPC/PG (MST)” value was 4.75 ± 0.32 × 10^3.

Consider `NCCCC[C@@H]1NC(=O)[C@H](CCCCN)NC(=O)[C@H](Cc2c[nH]c3ccccc23)NC(=O)[C@H](Cc2c[nH]c3ccccc23)NC(=O)[C@H](Cc2c[nH]c3ccccc23)NC(=O)[C@H](CCCCN)NC1=O` [compound 3] (cyclo(WWWKKK)), for which the “SMA KP, DMPC (MST)” value was 2.34 ± 1.40 × 10^3 and the “SMA KP, DMPC/PG (MST)” value was 4.21 ± 0.43 × 10^3. Moreover, the Kd (read-out: SMA KD, DMPC (MST)) was 1100 ± 300 nM. For the same compound, the Kd under setting [1] turned out to be 1100 ± 500 nM.
